≈ marks a conversion by molar mass, not a printed value. Read-outs that look alike come from different tables or passages of the source.
Assays:
Assay type in all cases: cell-based
OVCAR-4 = test: NCI cell line panel; conditions: Homo sapiens, Ovarian Cancer, read-out: Log10 GI50 (converted)
Excerpt: (§1) Only two hundred years ago, many diseases ravaged humankind. Many of these diseases now have been controlled or eradicated. In the development of the means to treat or control these diseases, work with the appropriate common experimental animals was of critical importance. With the various types of cancers, and with the HIV virus, such work is presently ongoing. The research for the treatment of various types of cancer is coordinated in the United States by the National Cancer Institute (NCI). NCI, as a government entity, has been charged with assisting anti-cancer research. To establish whether a substance has anti-cancer activity, NCI has established a variety of protocols, one of which involves testing the candidate substance against a cell line panel containing 60 human tumor cell lines. This protocol has been verified and is generally accepted throughout the scientific community. This protocol and the established statistical means of evaluating the results obtained therefrom have been fully described in the literature. See Principles & Practice of Oncology PPO Updates, Volume 3, Number 10, October 1989, by Michael R. Boyd, M.D., Ph.D., for an in depth description of the test protocol. The statistical analysis is explained in "Display and Analysis of Patterns of Differential Activity of Drugs Against Human Tumor Cell Lines: Development of Means Graph and COMPARE Algorithm" Journal of the National Cancer Institute Reports Vol. 81, No. 14, Pg. 1088, Jul. 14, 1989, by K. D. Paull et al. Both of these references are incorporated herein by this reference thereto. The effectiveness and validity of the NCI in vitro protocol continues to be verified.

A498 = test: NCI cell line panel; conditions: Homo sapiens; for GI50: A498, Renal Cancer, read-out: Log10 GI50 (converted)
Excerpt: as §1

SK-OV-3 = test: NCI cell line panel; conditions: Homo sapiens
Excerpt: as §1

HCT-15 = test: NCI cell line panel; conditions: Homo sapiens, Colon Cancer, read-out: Log10 GI50 (converted)
Excerpt: as §1

U251 = test: NCI cell line panel; conditions: Homo sapiens, U-251; CNS Cancer; read-out: Log10 GI50 (converted)
Excerpt: as §1

SR = test: NCI cell line panel; conditions: Homo sapiens, Leukemia, read-out: Log10 GI50 (converted)
Excerpt: as §1

SNB-75 = test: NCI cell line panel; conditions: Homo sapiens, CNS Cancer, read-out: Log10 GI50 (converted)
Excerpt: as §1

HOP-92 = test: NCI cell line panel; conditions: Homo sapiens, Non-Small Cell Lung Cancer, read-out: Log10 GI50 (converted)
Excerpt: as §1

TK-10 = test: NCI cell line panel; conditions: Homo sapiens
Excerpt: as §1

CAKI-1 = test: NCI cell line panel; conditions: Homo sapiens, Renal Cancer, read-out: Log10 GI50 (converted)
Excerpt: as §1

SNB-19 = test: NCI cell line panel; conditions: Homo sapiens; for IC (TGI): read-out: Log10 TGI (converted)
Excerpt: as §1

MCF7/ADR-RES = test: NCI cell line panel; conditions: Homo sapiens, Breast Cancer; for GI50: read-out: Log10 GI50 (converted)
Excerpt: as §1

MOLT-4 = test: NCI cell line panel; conditions: Homo sapiens, Leukemia, read-out: Log10 GI50 (converted)
Excerpt: as §1

DU-145 = test: NCI cell line panel; conditions: Homo sapiens, Prostate Cancer, read-out: Log10 GI50 (converted)
Excerpt: as §1

MCF7 = test: NCI cell line panel; conditions: Homo sapiens, Breast Cancer; for IC (TGI): read-out: Log10 TGI (converted)
Excerpt: as §1

LOX IMVI = test: NCI cell line panel; conditions: Homo sapiens, Melanoma
Excerpt: as §1

SF-539 = test: NCI cell line panel; conditions: Homo sapiens, CNS Cancer, read-out: Log10 GI50 (converted)
Excerpt: as §1

SF-295 = test: NCI cell line panel; conditions: Homo sapiens
Excerpt: as §1

T-47D = test: NCI cell line panel; conditions: Homo sapiens, T47D, Breast Cancer
Excerpt: as §1

HOP-62 = test: NCI cell line panel; conditions: Homo sapiens
Excerpt: as §1

HS 578T = test: NCI cell line panel; conditions: Homo sapiens; for GI50: read-out: Log10 GI50 (converted)
Excerpt: as §1

HCC-2998 = test: NCI cell line panel; conditions: Homo sapiens, Colon Cancer, read-out: Log10 GI50 (converted)
Excerpt: as §1

HL-60(TB) = test: NCI cell line panel; conditions: Homo sapiens, Leukemia, read-out: Log10 GI50 (converted)
Excerpt: as §1

OVCAR-3 = test: NCI cell line panel; conditions: Homo sapiens, Ovarian Cancer, read-out: Log10 GI50 (converted)
Excerpt: as §1

EKVX = test: NCI cell line panel; conditions: Homo sapiens; for GI50: read-out: Log10 GI50 (converted)
Excerpt: as §1

A549/ATCC = test: NCI cell line panel; conditions: Homo sapiens, Non-Small Cell Lung Cancer; for GI50: read-out: Log10 GI50 (converted); for IC (TGI): read-out: Log10 TGI (converted)
Excerpt: as §1

UO-31 = test: NCI cell line panel; conditions: Homo sapiens
Excerpt: as §1

SF-268 = test: NCI cell line panel; conditions: Homo sapiens, CNS Cancer; for GI50: read-out: Log10 GI50 (converted); for IC (TGI): read-out: Log10 TGI (converted)
Excerpt: as §1

MDA-MB-231/ATCC = test: NCI cell line panel; conditions: Homo sapiens, Breast Cancer, read-out: Log10 GI50 (converted)
Excerpt: as §1

NCI-H23 = test: NCI cell line panel; conditions: Homo sapiens, Non-Small Cell Lung Cancer, read-out: Log10 GI50 (converted)
Excerpt: as §1

[1] = test system: P388 lymphocytic leukemia cell line; test: P388 lymphocytic leukemia cell line bioassay; conditions: Mus musculus, pure compound
[2] = read-out: Log10 TGI (converted)
[3] = read-out: Log10 GI50 (converted)

Structure (SMILES)	GI50 (OVCAR-4)	GI50 (A498)	GI50 (HCT-15)	GI50 (U251)	GI50 (SR)	GI50 (SNB-75)	GI50 (HOP-92)	GI50 (CAKI-1)	IC (TGI) (SNB-19; SNB-19, CNS Cancer)	GI50 (MCF7/ADR-RES)	GI50 (MOLT-4)	GI50 (DU-145)	IC (TGI) (MCF7)	GI50 (SF-539)	GI50 (HCC-2998)	GI50 (HL-60(TB))	GI50 (OVCAR-3)	GI50 (A549/ATCC)	IC (TGI) (A549/ATCC)	GI50 (SF-268)	further results
C=C(Cl)/C=C/C(O)CC(=C)CC1OC2C(C)C(OC(=O)CC3CC(O)CC4(CC(C)(O)CC(C=C5COC(C(C)C(=O)CC6CC(OC)CC7(CC(O)CC(/C=C\CCCC8OC(O)(CC(O)C8C)C2O)O7)O6)C5C)O4)O3)C1O (centres unmarked) [spongistatin 5]	14.1 nM	0.0257 nM	0.0631 nM	0.0617 nM	0.012 nM	0.012 nM	1.41 nM	0.0575 nM	100 nM	0.912 nM	0.0372 nM	0.024 nM	39.8 nM	0.0229 nM	0.0631 nM	0.0129 nM	0.0151 nM	0.0209 nM	75.9 nM	0.151 nM	LC50 (50% lethal concentration) (A498; A498, read-out: Log10 LC50 (converted)): 87.1 nM; GI50 (SK-OV-3; SK-OV-3, Ovarian Cancer, read-out: Log10 GI50 (converted)): 0.191 nM; GI50 (TK-10; TK-10, Renal Cancer, read-out: Log10 GI50 (converted)): 36.3 nM; GI50 (SNB-19; SNB-19, read-out: Log10 GI50 (converted)): 0.407 nM; IC (TGI) (LOX IMVI; [2]): 11 nM; GI50 (SF-295; SF-295, CNS Cancer, read-out: Log10 GI50 (converted)): 0.011 nM; GI50 (T-47D; [3]): 100 nM; GI50 (HOP-62; HOP-62, Non-Small Cell Lung Cancer, read-out: Log10 GI50 (converted)): 0.151 nM; GI50 (HS 578T; Breast Cancer): 0.437 nM; GI50 (EKVX): 0.182 nM; GI50 (UO-31; UO-31, read-out: Log10 GI50 (converted)): 0.427 nM; IC (TGI) (SF-268): 100 nM; GI50 (MDA-MB-231/ATCC): 0.251 nM; GI50 (NCI-H23): 0.0347 nM; IC50 ([1]; PS (P388), read-out: ED50 (the source's name)): 0.066 ng/mL (≈ 0.058 nM)
C=C/C=C/C(O)CC(=C)CC1OC2C(C)C(OC(=O)CC3CC(O)CC4(CC(C)(O)CC(C=C5COC(C(C)C(=O)CC6CC(OC)CC7(CC(O)CC(/C=C\CCCC8OC(O)(CC(O)C8C)C2O)O7)O6)C5C)O4)O3)C1O (centres unmarked) [spongistatin 7]	24 nM	2.69 nM	6.17 nM	0.759 nM	0.0912 nM	0.372 nM	5.25 nM	12 nM	100 nM	77.6 nM	0.575 nM	1.58 nM	100 nM	0.49 nM	1.41 nM	0.0794 nM	0.0759 nM	3.47 nM	100 nM	6.31 nM	GI50 (SK-OV-3; SK-OV-3, read-out: Log10 GI50 (converted)): 1 nM; GI50 (TK-10; TK-10, read-out: Log10 GI50 (converted)): 56.2 nM; IC (TGI) (TK-10; TK-10, Renal Cancer, read-out: Log10 TGI (converted)): 100 nM; GI50 (SNB-19; SNB-19, CNS Cancer, read-out: Log10 GI50 (converted)): 8.32 nM; IC (TGI) (MCF7/ADR-RES; [2]): 100 nM; GI50 (MCF7; [3]): 0.17 nM; GI50 (LOX IMVI; [3]): 0.468 nM; GI50 (SF-295; SF-295, read-out: Log10 GI50 (converted)): 0.407 nM; IC (TGI) (T-47D; [2]): 100 nM; GI50 (HOP-62; HOP-62, read-out: Log10 GI50 (converted)): 1 nM; IC (TGI) (HS 578T; Breast Cancer, read-out: Log10 TGI (converted)): 100 nM; GI50 (HS 578T): 1.29 nM; GI50 (EKVX; Non-Small Cell Lung Cancer): 41.7 nM; IC (TGI) (EKVX; Non-Small Cell Lung Cancer, read-out: Log10 TGI (converted)): 100 nM; GI50 (UO-31; UO-31, Renal Cancer, read-out: Log10 GI50 (converted)): 24 nM; IC (TGI) (SF-268): 100 nM; GI50 (MDA-MB-231/ATCC): 1.58 nM; GI50 (NCI-H23): 0.708 nM; IC50 ([1]; P388, unit inferred, read-out: P388 ED50): 2.6 ng/mL (≈ 2.36 nM)

Source: patent US5393897A, “Isolation and structure of spongistatins 5,7,8 and 9” (Arizona Board of Regents acting on behalf of Arizona State …, priority 1993, dated 1995)
